Results as given in patent US4435393A, “Derivatives of 10-(1-azabicyclo[2.2.2]oct-3-yl)-N,N dimethyl-10H-phenothiazine-2-sulfonamide as medicaments” (Pharmindustrie, priority 1981, dated 1984).
Where two headings read alike, the source gives them in different places.

System: gastric hypersecretion stimulated by pentagastrine
Assay: antisecretory activity on gastric hypersecretion stimulated by pentagastrine in dogs wearing a Heidenhain pouch
Type: in vivo, dog (mongrel)
Conditions: for ED50: Canis lupus familiaris, read-out: ED 50 (dose which reduced by 50% the hourly acid flow)
Procedure: Three mongrel dogs wearing Heidenhain pouches and which were kept without food for 18 hours received a venous perfusion of […] of pentagastrine per hour in a volume of 30 mls per hour for 4 hours. The secretion from the pouch was collected in a flask which was changed every 15 minutes. An hour and a half after the beginning of the perfusion process, the product to be examined was administered orally in a No. 000 gelatin coated pill. […] The doses are expressed in the product in the base form.

[1] = oral, Heidenhain pouch dogs, pentagastrine perfusion, acid flow at 3rd or 4th hour vs second hour, doses expressed as base

Structure (SMILES) | ED50 [1] [mg/kg] | inhibition of gastric secretion relative to Cimetidine (oral, Heidenhain pouch dogs) | ED50 (po) [mg/kg]
CN(C)S(=O)(=O)c1ccc2c(c1)N(C1CN3CCC1CC3)c1ccccc1[S+]2[O-] (single isomer, unassigned) [Example 2, 10-(1-azabicyclo[2.2.2]oct-3-yl)-N,N dimethyl-10H-phenothiazine-2-sulfonamide S-oxide] | 2.5 | as active as Cimetidine | –
CN/C(=N/CCSCc1nc[nH]c1C)NC#N [Cimetidine, reference compound] | – | – | 2.3
CN(C)S(=O)(=O)c1ccc2c(c1)N(C1CN3CCC1CC3)c1ccccc1[S+]2[O-] (stereo not drawn) [Example 1, 10-(1-azabicyclo[2.2.2]oct-3-yl)-N,N dimethyl-10H-phenothiaxine-2-sulfonamide S-oxide] | 2.3 | as active as Cimetidine | –
CN(C)S(=O)(=O)c1ccc2c(c1)N(C1CN3CCC1CC3)c1ccccc1S2(=O)=O (stereo not drawn) [Example 3, 10-(1-azabicyclo[2.2.2]oct-3-yl)-N,N dimethyl-10H-phenothiazine-2 sulfonamide S-dioxide] | 10 | – | –
